Test results taken from PubChem BioAssay (NCI).
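The compound was tested at five concentrations on cells cultured in 96-well plates, with a 48-hour exposure period. GI50 is the concentration that inhibits growth by half. TGI denotes the concentration required for complete inhibition of growth.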

Assays:
Experiment in all cases: NCI tumour cell line growth inhibition, 48 h
SF-295 CNS = tested on: SF-295 CNS
CAKI-1 renal = tested on: CAKI-1 renal
BT-549 breast = tested on: BT-549 breast
SK-MEL-5 melanoma = tested on: SK-MEL-5 melanoma
HS 578T breast = tested on: HS 578T breast
SK-MEL-2 melanoma = tested on: SK-MEL-2 melanoma
MCF7 breast = tested on: MCF7 breast
HOP-62 NSCLC = tested on: HOP-62 NSCLC
HCT-116 colon = tested on: HCT-116 colon
UACC-62 melanoma = tested on: UACC-62 melanoma
SW-620 colon = tested on: SW-620 colon
SF-539 CNS = tested on: SF-539 CNS
TK-10 renal = tested on: TK-10 renal
PC-3 prostate = tested on: PC-3 prostate
SNB-19 CNS = tested on: SNB-19 CNS
NCI-H226 lung = tested on: NCI-H226 lung
UO-31 renal = tested on: UO-31 renal
COLO 205 colon = tested on: COLO 205 colon
DU-145 prostate = tested on: DU-145 prostate
SK-MEL-28 melanoma = tested on: SK-MEL-28 melanoma
IGROV1 ovarian = tested on: IGROV1 ovarian
NCI-H23 lung = tested on: NCI-H23 lung
K-562 leukemia = tested on: K-562 leukemia
786-0 renal = tested on: 786-0 renal
NCI-H460 lung = tested on: NCI-H460 lung
MDA-MB-435 = tested on: MDA-MB-435
OVCAR-3 ovarian = tested on: OVCAR-3 ovarian
SNB-75 CNS = tested on: SNB-75 CNS
T-47D breast = tested on: T-47D breast
U251 CNS = tested on: U251 CNS
MALME-3M melanoma = tested on: MALME-3M melanoma
HCT-15 colon = tested on: HCT-15 colon
SK-OV-3 ovarian = tested on: SK-OV-3 ovarian
HT29 colon = tested on: HT29 colon
M14 melanoma = tested on: M14 melanoma
LOX IMVI melanoma = tested on: LOX IMVI melanoma
NCI-H522 lung = tested on: NCI-H522 lung
OVCAR-8 ovarian = tested on: OVCAR-8 ovarian
A549 NSCLC = tested on: A549 NSCLC
KM12 colon = tested on: KM12 colon
HOP-92 NSCLC = tested on: HOP-92 NSCLC
RXF 393 renal = tested on: RXF 393 renal
MOLT-4 leukemia = tested on: MOLT-4 leukemia
A498 renal = tested on: A498 renal
SF-268 CNS = tested on: SF-268 CNS
UACC-257 melanoma = tested on: UACC-257 melanoma
EKVX NSCLC = tested on: EKVX NSCLC
SN12C renal = tested on: SN12C renal
OVCAR-4 ovarian = tested on: OVCAR-4 ovarian
HCC-2998 colon = tested on: HCC-2998 colon
ACHN renal = tested on: ACHN renal
OVCAR-5 ovarian = tested on: OVCAR-5 ovarian
RPMI-8226 leukemia = tested on: RPMI-8226 leukemia
SR leukemia = tested on: SR leukemia
HL-60(TB) leukemia = tested on: HL-60(TB) leukemia
MDA-MB-231 breast = tested on: MDA-MB-231 breast

## CC(C)(O)c1coc(S(=O)(=O)/N=C(\O)Nc2c3c(cc4c2CCC4)CCC3)c1
SF-295 CNS
  GI50: > 100 µM
  TGI: > 100 µM
CAKI-1 renal
  GI50: > 100 µM
  TGI: > 100 µM
BT-549 breast
  GI50: > 100 µM
  TGI: > 100 µM
SK-MEL-5 melanoma
  GI50: > 100 µM
  TGI: > 100 µM
HS 578T breast
  GI50: > 100 µM
  TGI: > 100 µM
SK-MEL-2 melanoma
  GI50: > 100 µM
  TGI: > 100 µM
MCF7 breast
  GI50: > 100 µM
  TGI: > 100 µM
HOP-62 NSCLC
  GI50: > 100 µM
  TGI: > 100 µM
HCT-116 colon
  GI50: > 100 µM
  TGI: > 100 µM
UACC-62 melanoma
  GI50: > 100 µM
  TGI: > 100 µM
SW-620 colon
  GI50: > 100 µM
  TGI: > 100 µM
SF-539 CNS
  GI50: > 100 µM
  TGI: > 100 µM
TK-10 renal
  GI50: > 100 µM
  TGI: > 100 µM
PC-3 prostate
  GI50: > 100 µM
  TGI: > 100 µM
SNB-19 CNS
  GI50: > 100 µM
  TGI: > 100 µM
NCI-H226 lung
  GI50: > 100 µM
  TGI: > 100 µM
UO-31 renal
  GI50: > 100 µM
  TGI: > 100 µM
COLO 205 colon
  GI50: > 100 µM
  TGI: > 100 µM
DU-145 prostate
  GI50: > 100 µM
  TGI: > 100 µM
SK-MEL-28 melanoma
  GI50: > 100 µM
  TGI: > 100 µM
IGROV1 ovarian
  GI50: > 100 µM
  TGI: > 100 µM
NCI-H23 lung
  GI50: > 100 µM
  TGI: > 100 µM
K-562 leukemia
  GI50: > 100 µM
  TGI: > 100 µM
786-0 renal
  GI50: > 100 µM
  TGI: > 100 µM
NCI-H460 lung
  GI50: > 100 µM
  TGI: > 100 µM
MDA-MB-435
  GI50: > 100 µM
  TGI: > 100 µM
OVCAR-3 ovarian
  GI50: > 100 µM
  TGI: > 100 µM
SNB-75 CNS
  GI50: > 100 µM
  TGI: > 100 µM
T-47D breast
  GI50: > 100 µM
  TGI: > 100 µM
U251 CNS
  GI50: > 100 µM
  TGI: > 100 µM
MALME-3M melanoma
  GI50: > 100 µM
  TGI: > 100 µM
HCT-15 colon
  GI50: > 100 µM
  TGI: > 100 µM
SK-OV-3 ovarian
  GI50: > 100 µM
  TGI: > 100 µM
HT29 colon
  GI50: > 100 µM
  TGI: > 100 µM
M14 melanoma
  GI50: > 100 µM
  TGI: > 100 µM
LOX IMVI melanoma
  GI50: > 100 µM
  TGI: > 100 µM
NCI-H522 lung
  GI50: > 100 µM
  TGI: > 100 µM
OVCAR-8 ovarian
  GI50: > 100 µM
  TGI: > 100 µM
A549 NSCLC
  GI50: > 100 µM
  TGI: > 100 µM
KM12 colon
  GI50: > 100 µM
  TGI: > 100 µM
HOP-92 NSCLC
  GI50: 91.9 µM
  TGI: > 100 µM
RXF 393 renal
  GI50: > 100 µM
  TGI: > 100 µM
MOLT-4 leukemia
  GI50: > 100 µM
  TGI: > 100 µM
A498 renal
  GI50: > 100 µM
  TGI: > 100 µM
SF-268 CNS
  GI50: > 100 µM
  TGI: > 100 µM
UACC-257 melanoma
  GI50: > 100 µM
  TGI: > 100 µM
EKVX NSCLC
  GI50: > 100 µM
  TGI: > 100 µM
SN12C renal
  GI50: > 100 µM
  TGI: > 100 µM
OVCAR-4 ovarian
  GI50: > 100 µM
  TGI: > 100 µM
HCC-2998 colon
  GI50: > 100 µM
  TGI: > 100 µM
ACHN renal
  GI50: > 100 µM
  TGI: > 100 µM
OVCAR-5 ovarian
  GI50: > 100 µM
  TGI: > 100 µM
RPMI-8226 leukemia
  GI50: > 100 µM
  TGI: > 100 µM
SR leukemia
  GI50: > 100 µM
  TGI: > 100 µM
HL-60(TB) leukemia
  GI50: > 100 µM
  TGI: > 100 µM
MDA-MB-231 breast
  GI50: > 100 µM
  TGI: > 100 µM
